“Also recorded” adds a separate entry of the source.
How the values were obtained:
[1] = test system: cholera toxin (CTX); set-up: species or system mice (CD1 strain); conditions: mouse, in vivo
[2] = test system: Calcium activated chloride conductance (CaCC); test: Whole cell patch clamp recordings of CaCC in JME/CF15 cells; assay type: cell-based
Method: (§1) Compound 2 was tested in whole cell patch clamp recordings for its specific effect on the swelling-activated chloride conductance (VRAC), and the Calcium activated chloride conductance (CaCC). CaCC and VRAC were investigated in JME/CF15 cells. […] Effect of compound 2 was tested in 2 runs at 1 and 10 μM, respectively, on CaCC, and VRAC.
(§2) JME/CF15 cells (see Jefferson et al. “Expression of normal and cystic fibrosis phenotypes by continuous airway epithelial cell lines” Am J Physiol. (1990) 259:L496-L505) were cultured as described (see Schwarzer et al. “Organelle redox of CF and CFTR-corrected airway epithelia measured with roGFP1” Free Radic Biol Med. (2007) 43:300-316, incorporated herein by reference in its entirety) and were seeded onto glass cover slips at low density and used 1 to 2 days after seeding
(§3) Whole cell patch clamp experiments were performed as described (see Fischer et al. “Basolateral C1 channels in primary airway epithelial cultures” Am J Physiol Lung Cell Mol Physiol. (2007) 292:L1432-L1443, incorporated herein by reference in its entirety), the pipette solution contained (in mM): 140 HCl, 160 N-methyl-D-glucamine (NMDG), 1 MgCl2, 5 Hepes, 1 glucose, 5 MgATP, pH 7.4. To investigate VRAC, the pipette contained in addition 5 mM EGTA. To investigate CaCC, the intracellular free Ca concentration was buffered to ˜500 nM by adding 1.8 mM CaCl2 and 2 mM EGTA. […]

[3] = test system: swelling-activated chloride conductance (VRAC); test: Whole cell patch clamp recordings of VRAC in JME/CF15 cells; assay type: cell-based
Method: as §1, §2, §3

[4] = 10 μM, 0% indicates complete block and 100% indicates no block
[5] = tested at 1 and 10 μM, block stronger at depolarizing (positive) potential

Compound | inhibition of CTX-induced fluid secretion [1] | inhibition of fluid secretion (in words) [1] | net fluid secretion (loop weight/loop length), CTX loop [1] | current remaining in CaCC after the addition of compound [2, 4] | block of CaCC (in words) [2, 5] | current remaining in VRAC [3, 4] | block of VRAC (in words) [3, 5]
O=C(NCc1ccc(Oc2ccccc2)cc1)c1nc(-c2cc(Br)c(O)c(Br)c2)no1 [BF'032, 3-(3,5-dibromo-4-hydroxyphenyl)-N-(4-phenoxybenzyl)-1,2,4-oxadiazole-5-carboxamide] | 90.16% | statistically significant inhibition | 0.06482 g/cm of loop |  |  |  | 
O=S(=O)(Nc1cccc(-c2ccc(OCCc3ccc(Cl)cc3)nn2)c1)C(F)(F)F [compound 2, N-(3-(6-(4-chlorophenethoxy)pyridazin-3-yl)phenyl)-1,1,1-trifluoromethanesulfonamide] |  | statistically significant inhibition |  | 64% | blocks CaCC and that the block is voltage dependent; also recorded: blocked CaCC and the block was voltage dependent | 23% | blocks VRAC significantly and that the block is voltage dependent; also recorded: blocked VRAC significantly and the block was voltage dependent

— US20110288093A1 (priority 2010, published 2011)
